# Data from US20210093730A1, “BIOMARKERS FOR ANTIBODY-DRUG CONJUGATE MONOTHERAPY OR COMBINATION THERAPY” (Immunomedics, Inc., priority 2019, published 2021).
# Several values for one entry are separate records, joined by “and”; a condition that tells them apart may be missing. Equal entries are not always repeated. Where two headings read alike, the source gives them in different places.
# What was measured:
# [1] = system: metastatic small-cell lung cancer
# From the text: Previous therapy had to be completed at least 4 weeks before enrollment.
# Treatment was continued until disease progression, initiation of alternative anticancer therapy, unacceptable toxicity, or withdrawal of consent.
# The primary endpoint was the proportion of patients with a confirmed objective response, assessed approximately every 8 weeks until disease progression, by each institution's radiology group or a contracted local radiology service. […] Partial (PR) or complete responses (CR) required confirmation within 4 to 6 weeks after the initial response. Clinical benefit rate (CBR) is defined as those patients with an objective response plus stable disease (SD)≥4 months. Survival was monitored every 3 months until death or withdrawal of consent.
# Safety evaluations were conducted during scheduled visits or more frequently if warranted.
# The frequency and severity of adverse events (AEs) were defined by MedDRA Preferred Term and System Organ Class (SOC) version 10, with severity assessed by NCI-CTCAE v4.03.
# The protocol provided that objective response rates (ORR) were determined for patients who received ≥2 doses (1 cycle) and had their initial 8-week CT assessment. Duration of response is defined in accordance to RECIST 1.1 criteria, with those having an objective response marked from time of the first evidence of response until progression, while stable disease duration is marked from the start of treatment until progression. PFS and OS were defined from the start of treatment until an objective assessment of progression was determined (PFS) or death (OS).
# [2] = system: metastatic triple-negative breast cancer (TNBC); assay: Phase I/II clinical trial (NCT01631552) of sacituzumab govitecan in relapsed/refractory metastatic TNBC; assay type: in vivo, human
# Method: Patients with relapsed/refractory TNBC who had previously failed at at least one prior line of therapy were enrolled in a single-arm, multicenter trial (Bardia et al., 2019, N Engl J Med 380:741-51). The present study reports on 108 patients who had failed at least two prior lines of therapy (median three prior therapies) (Bardia et al., 2019, N Engl J Med 380:741-51). […] Of the 108 patients, 107 were female and 1 was male, with a median age of 55. […] Tumor staging was performed by computed tomography (CT) and MRI at baseline, followed up at 8 week intervals from the start of treatment until disease progression.
# [3] = in vivo
# [4] = SG given as >3 line, no prior topotecan/irinotecan (N = 9)
# [5] = SG given as >3 line, prior topotecan/irinotecan (N = 15)
# [6] = patients resistant (N = 19) to 1st line
# [7] = patients sensitive (N = 24) to 1st line
# [8] = 36 patients with objective response
# [9] = any grade, 108 patients, 10 mg/kg
substance,measurement,setting,value
sacituzumab govitecan,confirmed PR,[1]; 19 patients resistant to first-line platinum,16%
same,confirmed PR,[1]; 24 patients sensitive to first-line platinum,17%
same,"PD, %",[1]; 43 assessable patients,(35%)
same,stable disease including unconfirmed PR,[1]; 43 assessable patients (21 patients),49%
same,treatment-related deaths,[1]; 53 patients,No treatment-related deaths were observed
same,"OS, seven confirmed PR patients","[1]; 95% CI 6.2, 20.9",9.2 months
same,"OS, ten patients with SD >=4 months","[1]; 95% CI 7.5, 22.4",8.3 months
same,"median PFS, confirmed PR group","[1]; 95% CI 7.6, 21.9",7.9 months
same,"Duration of confirmed objective response, median","[1]; Kaplan-Meier, 95% CI 3.6, 19.9",5.7 months
same,"Clinical benefit rate (PR + SD >= 4 months), %",[1]; SG as >=3 line (N = 24),(38%)
same,OS median,[1]; SG as >=3 line (N = 24),7.0 months
same,PFS median,[1]; SG as >=3 line (N = 24),3.7 months
same,"Clinical benefit rate (PR + SD >= 4 months), %",[1]; SG as second line (N = 19),(37%)
same,OS median,[1]; SG as second line (N = 19),8.1 months
same,PFS median,[1]; SG as second line (N = 19),3.6 months
same,"Clinical benefit rate (PR + SD >= 4 months), %",[1]; [4],(33%)
same,OS median,[1]; [4],5.5 months
same,PFS median,[1]; [4],3.7 months
same,"Clinical benefit rate (PR + SD >= 4 months), %",[1]; [5],(40%)
same,OS median,[1]; [5],8.8 months
same,PFS median,[1]; [5],3.8 months and 3.6 months
same,grade 3 or 4 anemia,"[1]; human, in vivo",8%
same,grade 3 or 4 diarrhea,"[1]; human, in vivo",9%
same,grade 3 or 4 fatigue,"[1]; human, in vivo",13%
same,grade 3 or 4 hyponatremia,"[1]; human, in vivo",8%
same,grade 3 or 4 increased alkaline phosphatase,"[1]; human, in vivo",8%
same,grade 3 or 4 neutropenia,"[1]; human, in vivo",34%
same,infusion-related reactions,"[1]; human, in vivo",No infusion-related reactions were reported
same,patients with dose reduction,"[1]; human, in vivo",13%
same,"Overall survival, median",[1]; intention-to-treat N = 53,7.0 months
same,"Progression-free survival, median",[1]; intention-to-treat N = 53,3.6 months
same,"duration of SD, patient with 17% tumor shrinkage",[1]; one patient with prior CPI,8.7 months
same,"duration of SD, patient with no change in tumor size",[1]; one patient with prior CPI,3.7 months
same,"tumor shrinkage, patient with SD",[1]; one patient with prior CPI,17%
same,"tumor shrinkage on first assessment, patient with unconfirmed PR",[1]; one patient with prior checkpoint inhibitor (CPI),54%
same,"Clinical benefit rate (PR + SD >= 4 months), %",[1]; [6],(26%)
same,OS median,[1]; [6],6.2 months
same,PFS median,[1]; [6],3.6 months
same,"Clinical benefit rate (PR + SD >= 4 months), %",[1]; [7],(50%)
same,OS median,[1]; [7],8.3 months
same,PFS median,[1]; [7],3.8 months
same,PR,[1]; second-line setting (3/19),16%
same,median time to response,"[1]; seven confirmed PR, range 1.8 to 3.6",2.0 months
same,confirmed PR,"[1]; starting dose 8 mg/kg, 13 patients",8%
same,CBR,[1]; starting dose 10 mg/kg (14/30),47%
same,confirmed PR,[1]; starting dose 10 mg/kg (N = 30),20%
same,Kaplan-Meier-derived median duration of SD,"[1]; ten patients with SD >=4 months, 95% CI 5.2, 9.7",5.6 months
same,confirmed PR,[1]; third or higher line (N = 24),16%
same,response rate among patients who had failed previous checkpoint inhibitor therapy,[2]; 10 mg/kg,44%
same,median duration of response,[2]; [8],7.7 months
same,median time to response,[2]; [8],2.0 months
same,"anemia, grade 3","[2]; 108 patients, 10 mg/kg",11%
same,complete responses (CR),"[2]; 108 patients, 10 mg/kg",2.8%
same,"decreased white blood cell count, grade 4","[2]; 108 patients, 10 mg/kg",3%
same,"diarrhea, grade 3","[2]; 108 patients, 10 mg/kg",8%
same,"fatigue, grade 3","[2]; 108 patients, 10 mg/kg",8%
same,"hyperglycemia, grade 4","[2]; 108 patients, 10 mg/kg",1%
same,median overall survival,"[2]; 108 patients, 10 mg/kg",13.0 months
same,median progression-free survival,"[2]; 108 patients, 10 mg/kg",5.5 months
same,"nausea, grade 3","[2]; 108 patients, 10 mg/kg",6%
same,"neutropenia, grade 3","[2]; 108 patients, 10 mg/kg",26%
same,"neutropenia, grade 4","[2]; 108 patients, 10 mg/kg",16%
same,"vomiting, grade 3","[2]; 108 patients, 10 mg/kg",6%
same,response rate (CR+PR),"[2]; 108 patients, >=2 prior lines, 10 mg/kg, local assessment",33.3%
same,"anemia, % of patients",[2]; [9],50%
same,"diarrhea, % of patients",[2]; [9],62%
same,"fatigue, % of patients",[2]; [9],55%
same,"nausea, % of patients",[2]; [9],67%
same,"neutropenia, % of patients",[2]; [9],64%
same,"vomiting, % of patients",[2]; [9],49%
same,patients with long-term responses of more than 12 months,[2]; as of data cutoff,6 patients
same,estimated probability that a patient would exhibit a response,[2]; at 6 months,59.7%
same,estimated probability that a patient would exhibit a response,[2]; at 12 months,27.0%
same,patients who discontinued treatment due to adverse events,[2]; of 108 patients,Three
same,SN-38 released daily,[3],50%
